# Where two headings read alike, the source gives them in different places.
# Key:
# FEPD (ALCL) = experiment: Cell viability assay ([…]-GLO); type: cell-based; details: Homo sapiens, 60 h, read-out: IC50 in nM at 60 Hours
# Description: (§1) Cell lines. The T cell lymphoma cell lines HH and H9 (both Cutaneous T Cell Lymphomas; CTCL), SUP-T1 (T Cell Lymphoblastic Lymphoma) and FEPD and SUP-M2 (ALK-negative anaplastic large cell lymphoma; ALCL), were obtained from ATCC. NKL (Natural killer cell lymphoblastic leukemia/lymphoma) cell lines (Robertson et al., 1996) were also employed. The cutaneous melanoma cell line FM3-29 was obtained from DSMZ. The Large Granular Lymphocyte (LGL) leukemia cell line TL-1 was generated in the Loughran lab. All cells were grown at 37° C. and 5% CO2 in a humidified incubator. Cell lines were authenticated by short tandem repeat DNA profiling (Genetica DNA laboratories) and tested for mycoplasma contamination routinely using the MycoAlert PLUS detection kit (Lonza #LT07-710). Experiments were performed within 6 weeks of thawing. HH, H9, SUP-T1, FEPD and FM3-29 cells were cultured in RPMI-1640 (Corning, Glendale, AZ) with 10% FBS (Thermofisher Scientific, Waltham, MA). SUP-M2 cells were cultured in RPMI-1640 with 20% FBS. TL-1 cells were cultured in RPMI-1640 with 10% FBS and supplemented with 200 U/ml IL-2 (Miltenyi Biotec cat #130-097-743). NKL cells were cultured in RPMI-1640 with 10% FBS and supplemented with 100 U/ml IL-2.
# (§2) Cell Viability Assay. For cell viability, cell lines were plated at the appropriate cell densities (SUP-T1, HH, NKL and TL-1 at 100,000 cells/ml/well and H9, FEPD SUP-M2 and FM3-29 at 50,000 cells/ml/well) in a 48-well plate. […] Cells were harvested after 24, 60, and 96 hours of incubation at 37° C., 5% CO2 and assayed for cell viability, using […]-GLO® (Promega) luminescence reagent, by quantifying the amount of ATP present. After 15 minutes of adding […]-GLO® reagent at a 1:1 ratio, luminescence was read on a GLOMAX® Discover Microplate Reader (Promega). Luminescence was normalized to untreated control, which was defined as 100% viability.
# [1] = system: FM3-29 (cutaneous melanoma); experiment: Cell viability assay ([…]-GLO); type: cell-based; details: Homo sapiens, 60 h, read-out: IC50 in nM at 60 Hours
# Description: as §1, §2
# H9 (CTCL) = experiment: Cell viability assay ([…]-GLO); type: cell-based; details: Homo sapiens, 60 h, read-out: IC50 in nM at 60 Hours
# Description: as §1, §2
# HH (CTCL) = experiment: Cell viability assay ([…]-GLO); type: cell-based; details: Homo sapiens, 60 h, read-out: IC50 in nM at 60 Hours
# Description: as §1, §2
# [2] = system: NKL (Natural killer cell lymphoblastic leukemia/lymphoma); experiment: Cell viability assay ([…]-GLO); type: cell-based; details: Homo sapiens, 60 h, read-out: IC50 in nM at 60 Hours
# Description: as §1, §2
# SUP-M2 (ALK-ALCL) = experiment: Cell viability assay ([…]-GLO); type: cell-based; details: Homo sapiens, SUP-M2, 60 h, read-out: IC50 in nM at 60 Hours
# Description: as §1, §2
# [3] = system: SUP-T1 (T Cell Lymphoblastic Lymphoma); experiment: Cell viability assay ([…]-GLO); type: cell-based; details: Homo sapiens, SUP-T1, 60 h, read-out: IC50 in nM at 60 Hours
# Description: as §1, §2
# TL-1 (LGL leukemia) = experiment: Cell viability assay ([…]-GLO); type: cell-based; details: Homo sapiens, 60 h, read-out: IC50 in nM at 60 Hours
# Description: as §1, §2
# [4] = Single dose toxicity study (MTD); type: in vivo, mice; details: female, mouse, in vivo, BALB/c mice
# Experimental: (§3) In vivo studies. For single dose toxicity study, five to seven-week old female BALB/c mice were chosen for the MTD study. Animals were randomly assigned to dose groups based on body weight. […] Mice were divided into two cohorts for Nano-romidepsin (NanoRomi) and free romidepsin. Each cohort was divided into sub-cohorts. Each sub cohort (n=5) received a single treatment of following doses: 1, 2, 3, 5, and 8 mg/kg body weight by intreaperitoneal (IP) and intravenous (IV) route of administration. NanoRomi was diluted under sterile conditions in phosphate buffered saline (PBS). Romidepsin was prepared in DMSO and then diluted with PBS under sterile condition. […] The mice were monitored for 7 days after the last treatment. For single dose and repeated dose toxicity study, we used two endpoints: weight loss and clinical score. Clinical signs were scored by observing activity, appearance (hair coat and eyes/nose), posture, and body condition with a maximum of 3 points going to each (0, normal; 1 slight deviation from normal; 2, moderate deviation from normal, 3, severe deviation from normal). Euthanasia criteria included weight loss either >20% weight loss or reached a clinical score >6.
# BALB/c mice = experiment: Single dose toxicity study (MTD); type: in vivo
# Experimental: as §3
# [5] = system: H9-dtomato-luciferase tumor; experiment: Efficacy study, xenograft bioluminescence imaging; type: in vivo, NOD.Cg-Prkdcscid Il2rgtm1Wjl/SzJ mice (human H9 xenografts); details: 2 mg/kg IP on days 1, 4, 8, 11; after day 17 of engraftment
# Description: FIG. 15. Efficacy study using NanoRomidepsin PDLLA. […] In vivo, BLI images were acquired to determine the response after the romidepsin and NanoRomidepsin PDLLA treatment. All cohorts were imaged on days 7, 10, 14, and 17 days (arrows) after post-engraftment using Lago X Spectrum Imaging System before the administration of drugs. After acquisition of images, a mean BLI curve of human H9 xenografts was generated where the y axis represents total flux (photon/s) and x axis represents time (Days) function.
# PTCL = details: cited from earlier work; for Outcomes: ORR / Outcomes: CR / Outcomes: DOR: patients with PTCL; for response, share of patients: R/R PTCL
# [6] = single agent, pivotal trial cited per drug (romidepsin: trial (6))
smiles,measurement,setting,value
"C/C=C1\NC(=O)[C@H]2CSSCC/C=C/[C@H](CC(=O)N[C@H](C(C)C)C(=O)N2)OC(=O)[C@H](C(C)C)NC1=O [Romidepsin, (1S,4S,7Z,10S,16E,21R)-7-Ethylidene-4,21-diisopropyl-2-oxa-12,13-dithia-5,8,20,23-tetrazabicyclo[8.7.6]tricos-16-ene-3,6,9,19,22-pentone]",IC50,FEPD (ALCL),1.6 nM
same,IC50,[1],0.6 nM
same,IC50,H9 (CTCL),1.4 nM
same,IC50,HH (CTCL),1.3 nM
same,IC50,[2],0.7 nM
same,IC50,SUP-M2 (ALK-ALCL),1.6 nM
same,IC50,[3],1.9 nM
same,IC50,TL-1 (LGL leukemia),0.7 nM
same,MTD,[4]; intraperitoneal (IP),5 mg/kg
same,MTD,"[4]; intravenous (IV), highest dose tested 8 mg/kg",> 8 mg/kg
same,clinical score,BALB/c mice; after first 7 days of treatment,equivalent clinical score
same,dose at which mice reached humane endpoints,BALB/c mice; intraperitoneal (IP),8 mg/kg
same,tumor response (BLI) compared to the control and ghost nanoparticle group,[5],cytostatic effect
same,Outcomes: ORR,"PTCL; single agent, pivotal trial cited per drug (romidepsin: trial (6) Coiffier et al., 2014)",25%
same,Outcomes: CR,PTCL; [6],15%
same,Outcomes: DOR,PTCL; [6],28 months
same,Outcomes: CR,"PTCL; trial (7) Piekarz et al., 2011",18%
same,Outcomes: DOR,"PTCL; trial (7) Piekarz et al., 2011",8.9 months
same,Outcomes: ORR,"PTCL; trial (7) Piekarz et al., 2011",38%
same,"response, share of patients",PTCL; single agent,25%
same,"response, share of patients","PTCL; single agent, listed as romidepsin",about 25%
